From patent publication US9266859B2, “Azetidinyloxyphenylpyrrolidine compounds” (Eli Lilly and Company, priority 2013, dated 2016)
Values joined by “and” are separate entries in the source; they are usually repeats but may differ in a detail not shown here. Equal values may be shown once.

Tests used:
PDE4B = target: T1, PDE4B (Homo sapiens, UniProt Q07343); assay: PDE4 Inhibition In Vitro Assay; type: biochemical; conditions: human recombinant PDE4B
T1 construct: made in house; host or cells: Saccharomyces cerevisiae lacking endogenous PDEs
Experimental: The phosphodiesterase assays are performed essentially according to the method described in Loughney, K., et al., J. Biol. Chem., 271, pp. 796-806 (1996). PDE4A, PDE4B, PDE4C, PDE4D, and PDE5 human recombinant proteins are expressed and purified from Saccharomyes cerevisiae that lack endogenous PDEs. The phosphodiesterase enzymes are diluted on ice with enzyme dilution buffer (25 mM Tris, pH 7.5, 0.1 mM DTT, 5.0 mM MgCl2, 100 mM NaCl, 5 μM ZnSO4, 100 μg/mL BSA) to give approximately 20%-40% hydrolysis of cyclic nucleotide monophosphate (cNMP) in the absence of inhibitor.
The stock solution of test compounds are diluted on the Beckman BioMek™ 1000 workstation to span a concentration range of 4.5 log units in 0.5 log increments. The DMSO concentration in the final test system is 2.5% for all PDE enzymes. The final test compound concentration tested ranged from 0.03 nM to 1 μM.
The assay is performed in a 96-well microtiter plate format on a Beckman BioMek™ 1000 robotic station. […] The amount of radioactivity released as phosphate is determined in a Wallac MicroBeta Plate™ counter.
The reduced data at each concentration of inhibitor is analyzed using a four-, three- or two-parameter logistic dose response model to provide an IC50 value.

[1] = system: chronic cyclophosphamide (CYP)-induced overactive bladder mouse model; assay: Overactive Bladder In Vivo Model (chronic cyclophosphamide-induced)
Experimental: The in vivo effect of PDE4 inhibitors on OAB is studied with a chronic cyclophosphamide (CYP)-induced overactive bladder mouse model adapted from Boudes et al., Neurourol. Urodynam. 2011. In a typical study, female C57/Bl6 mice, approximately 20 grams in body weight (Harlan Laboratories, Inc., Indianapolis, Ind.) are used. Mice are randomized by body weight into groups one day before the start of the study. Mice are individually housed and maintained on a 12 hour light/dark cycle at 22° C. with ad lib access to food (TD 2014 with 0.72% Ca and 0.61% P, 990 IU/g D3, Teklad™, Madison, Wis.) and water. Animals receive cyclophosphamide (dissolved in physiological saline) i.p. administration at 100 mg/kg on days 1, 3, 5, and 7 to chronically induce OAB. The vehicle control group received daily vehicle (HEC 1%/Tween 80 0.25%/Antifoam 0.05%) administered orally. All other groups are administered orally tadalafil at 10 mg/kg in combination with 0.1, 1.0, or 10.0 mg/kg of test compound daily at a volume of 200 μl/mouse. On day 8, mice are housed in urine collection chambers with a filter paper placed underneath chamber. Prior to urine collection, gavages of 1 ml water are given to each mouse. Urine is collected from 6 pm to 10 pm (i.e. for 4 hrs). Gel cups (DietGel™76A) are supplied as water source during the 4 hour period. The filter paper is changed every hour. Voiding frequency and volume/void are calculated using Image J software (NIH). Data are statistically analyzed with JMP8® software (Cary, N.C.).
All treatment groups receive a fixed dose of 10 mg/kg of tadalafil.

[2] = Example 2 0.1, 1.0, 10.0 mg/kg given with tadalafil 10 mg/kg

T1 sequence (Q07343 whole entry): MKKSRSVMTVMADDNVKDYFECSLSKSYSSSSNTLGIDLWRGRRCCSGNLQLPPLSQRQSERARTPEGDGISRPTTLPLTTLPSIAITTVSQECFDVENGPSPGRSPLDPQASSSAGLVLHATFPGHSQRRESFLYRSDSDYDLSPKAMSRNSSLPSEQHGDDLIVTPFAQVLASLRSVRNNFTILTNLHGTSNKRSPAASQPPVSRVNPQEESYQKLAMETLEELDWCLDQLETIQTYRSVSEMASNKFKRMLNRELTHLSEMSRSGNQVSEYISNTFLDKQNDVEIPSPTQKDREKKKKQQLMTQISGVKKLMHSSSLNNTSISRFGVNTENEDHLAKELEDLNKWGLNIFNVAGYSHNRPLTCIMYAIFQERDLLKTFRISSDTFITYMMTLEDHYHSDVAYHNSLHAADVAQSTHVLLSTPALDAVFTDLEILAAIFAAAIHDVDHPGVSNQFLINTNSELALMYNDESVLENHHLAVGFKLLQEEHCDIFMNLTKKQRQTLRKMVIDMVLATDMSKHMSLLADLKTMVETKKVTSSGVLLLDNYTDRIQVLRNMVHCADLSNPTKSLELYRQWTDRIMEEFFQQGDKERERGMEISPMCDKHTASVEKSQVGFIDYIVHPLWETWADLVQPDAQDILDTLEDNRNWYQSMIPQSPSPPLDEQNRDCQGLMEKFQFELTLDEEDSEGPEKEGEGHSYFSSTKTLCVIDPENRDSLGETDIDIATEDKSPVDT

IC50 (PDE4B) | SMILES | Mean Voiding Frequency ([1]; Example 2 0.1 mg/kg + tadalafil 10 mg/kg, oral daily, day 8, CYP-treated female C57/Bl6 mice, vehicle 16.5) [no./4 hr] | effect on urinary frequency (in words) [1, 2] | effect on volume/void (in words) [1, 2]
< 10 nM | COc1ccc([C@@H]2CN(C(=O)[C@@H](O)CO)C[C@@]2(C)[C@@H](C)O)cc1OC1CN(c2ccccn2)C1 [Example 1, (2S)-3-[(3S,4S)-3-[(1R)-1-hydroxyethyl]-4-{4-methoxy-3-[(1-pyridin-2-ylazetidin-3-yl)oxy]phenyl}-3-methylpyrrolidin-1-yl]-3-oxopropane-1,2-diol] |  |  | 
< 10 nM and 0.58 nM | COc1ccc([C@@H]2CN(C(=O)[C@@H](O)CO)C[C@@]2(C)[C@@H](C)O)cc1OC1CN(c2ccc(C)cn2)C1 [Example 2, (2S)-3-[(3S,4S)-3-[(1R)-1-hydroxyethyl]-4-(4-methoxy-3-{[1-(5-methylpyridin-2-yl)azetidin-3-yl]oxy}phenyl)-3-methylpyrrolidin-1-yl]-3-oxopropane-1,2-diol] | 10 | significantly reduces urinary frequency in a dose-dependent fashion | increases of volume/void are also observed in a dose-dependent fashion
